The text below walks through data of article PMC7696741, “Synthesis, Characterization and Assessment of the Antioxidant Activity of Cu(II), Zn(II) and Cd(II) Complexes Derived from Scorpionate Ligands” (Molecules, 2020).

The nature of series [1]: ABTS radical scavenging activity. The class given is biochemical. Conditions: ABTS+· in methanol, 10 min dark, room temperature, absorbance 630 nm. The procedure: (§1) We have carried out both enzymatic and non-enzymatic assays to evaluate the antioxidant properties of all the synthesized scorpionate complexes of Cu(II), Zn(II) and Cd(II) (1–9). All complexes were used at an initial concentration of 2.5 mM diluted in methanol.
Total antioxidant activity was assessed as a measure of radical scavenging activity of the complexes examined against the cationic radical ABTS^+. The method is valid for both hydrophilic and hydrophobic antioxidants. The working solution is produced by the oxidation of an initial solution of ABTS, which is oxidized to ABTS^+· through the reaction with K2S2O8 (2.45 mM) and left in the dark for 12 h. After incubation, the ABTS^+· solution is diluted with methanol to obtain an absorbance of 0.706 ± 0.001 units at 734 nm, which is used as a solution for the analysis of scavenger activity.
Radical scavenging ability is measured with a modified method described initially by Re et al. for the application of a microplate 96 wells. Compounds or standards in methanol were diluted in series in the 96 well plate, as previously described. Trolox was used as a control and was loaded into the plate with the same method and dilution of the samples. The reaction is started with the addition of 200 μL of the ABTS^+· solution (final volume in the wells, 250 μL). The reaction mixture is allowed to stand in the dark for 10 min at room temperature, and the absorbance at 630 nm is measured (Multiskan JX, Thermo Labsystems Oy, Vantaa, Finland). The radical scavenging activity is estimated through the absorbance decrease at 630 nm and can be expressed as the equivalent Trolox.

Series [2] can be described thus: Solubility of the isolated complexes. The series is classed as physicochemical. Conditions: for Solubility in chlorinated solvents, alcohols, acetonitrile, dimethylsulfoxide and dimethylformamide: organic solvents as listed.
A short description of series [3]: Superoxide radicals scavenging activity (PMS-NADH/NBT system). The class given is biochemical. The note with it: for IC50: PMS-NADH/NBT, Tris-HCl pH 8.0, absorbance 560 nm, read-out: Oxygen Species Radicals IC50, O2^−. The procedure:
as §1
The scavenging activity of superoxide radicals was determined by the method of Liu and Ng, slightly modified by Kang and Lee. Superoxide radicals are generated in the phenazine methosulfate-nicotinamide adenine dinucleotide (PMS-NAD) system, responsible for the oxidation of NADH (reduced form of NAD) that was analyzed by reducing the nitro blue tetrazolium chloride NBT in a microplate assay.
In a 96 well plate, samples or control were subjected to a serial dilution with 20 mM Tris-HCl (pH 8.0). Superoxide radicals are generated by adding in 200 μL of 20 mM Tris-HCl (pH 8.0), containing 78 mM NADH, NBT 50 mM to each well and 10 μL are added to the various samples of PMS 10 mM. The reaction between superoxide radicals and NBT develops a blue color, whose intensity decreases proportionally in the presence of the antioxidant compound. The change in absorbance in the various wells is measured at 560 nm with a microplate reader (Molecular Devices, Sunnyvale, CA, USA). L-ascorbate was used as a positive control. The interaction relationship with the superoxide radical (%) was calculated using the following formula:superoxide radical (%) = ((A − A1)/A) × 100 where A is the absorbance of the positive control, and A1 is the absorbance of the test samples.

A short description of series [4]: Overall evaluation of scavenging (antioxidant) activity, all radical assays. Conditions: conclusions, all radical assays together. The class given is biochemical. Here is the method: as §1
Series [5] in a line: Hydroxyl radicals scavenging activity (L-ascorbic acid-CuSO4 / cytochrome c). The series is classed as biochemical. Conditions: L-ascorbic acid-CuSO4, cytochrome c oxidation, pH 7.4, 550 nm; read-out: Oxygen Species Radicals IC50, OH. Here is the method:
as §1
The scavenging activity of superoxide radicals was determined by the method of Liu and Ng, slightly modified by Kang and Lee. Hydroxyl radicals, generated in the L-ascorbic acid-CuSO4 system, with the reduction of Cu^2+, were analyzed by the oxidation of cytochrome c in 96 microplate wells. The hydroxyl radicals were generated in 200 μL of 10 mM buffer sodium phosphate (pH 7.4), containing […], 12 μM reduced cytochrome c and the samples to be analyzed in different concentrations. The reduction of cytochrome c is produced with the addition of an excess of dithiothreitol to a solution of cytochrome c and followed by Sephadex G-15 chromatography (bed volume, 10 mL) to remove the excess of dithiothreitol.
The compounds or standards in methanol were diluted in series in a 96-well flat-bottomed plate. Stock solution was prepared in phosphate buffer (pH 7.4) containing 100 μM L-ascorbic acid and 100 μM CuSO4. Then, 200 μL of this solution was added to each well and, finally, 10 μL of 120 μM reduced cytochrome c, was added to the plate and was left to incubate for 20 min at room temperature. The change in absorbance, caused by the oxidation of cytochrome c, was measured at 550 nm with a microplate reader (Molecular Devices, Sunnyvale, CA, USA). A thiourea solution (500 μM) was used as a positive control. The scavenging activity of hydroxyl radicals of 500 […] solution of thiourea was taken as 100%. The scavenging activity of hydroxyl radicals has been calculated using the following formula:hydroxyl scavenging radicals (%) = (A − A0)/(AT − A0) × 100 where A is the absorbance of the samples, and AT and A0 is the absorbance of the thiourea and the control, respectively.

A short description of series [6]: Hydrogen peroxide radicals scavenging activity. Conditions: hydrogen peroxide in PBS, 10 min, 230 nm; read-out: Oxygen Species Radicals IC50, OOH. The class given is biochemical. The procedure: as §1
In order to determine the scavenging activity of H2O2 of different complexes or standards in methanol, the compounds were diluted in series in a 96-well flat-bottom plate with the same procedure used in previous assays. Then, 200 μL of peroxide solution was added to the various wells hydrogen in PBS (final volume, 250 μL). After 10 min of incubation, the absorbance was measured at 230 nm with a microplate reader.

A short description of series [7]: DPPH radical scavenging activity. The series is classed as biochemical. The note with it: DPPH 100 μM in methanol, 37 °C, absorbance 490 nm. Here is the method: as §1
The antioxidant properties of the compounds or control substances have been measured by DPPH, which is able to react with various natural or synthetic antioxidants. A dose response curve was plotted to determine the IC50 values, and the following formula was used to calculate the percentage of radical scavenging:Radical scavenging % = [(A0 − Ac)/A0] × 100 where A0 is the absorbance of the control sample, containing the reagents except the test substance, and Ac is the absorbance of the solution of the various complexes and of the control measured after 30 min of incubation at 37 °C. Any determination is performed in triplicate.
In order to determine the DPPH radical scavenging activity of different scorpionate complexes, the compounds or standards in methanol were diluted in series in the 96 well plate with a flat bottom. The solvent used is usually the same used to dissolve the samples. In various wells containing the compounds and standards, 200 μL of DPPH in methanol solution (100 μM) were added to reach a final volume of 250 μL in all wells. After incubation at 37 °C for 20 min, the absorbance of samples was determined at 490 nm (Multiskan JX, Thermo Labsystems Oy, Vantaa, Finland). Trolox was used as a control and was loaded into the plate with the same method and dilution of the samples.
For orientation: The DPPH test is a chemical assay of radical scavenging.

Series [8] in a line: Nitric oxide scavenging activity (sodium nitroprusside / Griess reagent). The class given is biochemical. The note with it: sodium nitroprusside in PBS, light, 150 min, 577 nm, read-out: Oxygen Species Radicals IC50, NO. Here is the method: as §1
In order to determine the scavenging activity of the metal complexes against NO radicals, samples were added to a 96-well plate dish with a flat bottom, and were serially diluted by the same procedure used in the previous assays. In all wells, 100 μL of PBS and 50 μL of sodium nitroprusside dissolved in saline phosphate buffer (PBS), were added. The plate with the samples was incubated in the presence of light at room temperature for 150 min. Finally, an equal volume of 50 μL of Griess reagent was added to each well in order to measure the nitrite content. The plate was incubated at room temperature for 10 min until chromophore formation, and the absorbance was measured at 577 nm in a microplate reader (Molecular Devices, Sunnyvale, CA, USA).
A general note: Nitrite, measured by Griess reagent, commonly stands in for NO production.

Series [9] can be described thus: Air and moisture stability of the isolated powders. The class given is physicochemical. Conditions: pure powders.
The conditions of series [10]: read-out: SOD activity IC50, cited from earlier work.

Where two headings read alike, the source gives them in different places.

On to `CC(C)(C)c1cc[nH]n1.CC(C)(C)c1cc[nH]n1.CC(C)(C)c1cc[nH]n1.[Cl][Cu][Cl]` [Complex 3, [Cu(Hpz^t^Bu)3Cl2]], for which the concentration for half-maximal inhibition (IC50) (in general, the concentration at which inhibition is half-maximal) is 0.0972 ± 0.0038 mM in series [1]; 0.233 ± 0.004 mM in series [3]; more than 5 mM in series [5]; more than 5 mM in [6]; 0.0766 ± 0.0025 mM in series [7]; more than 5 mM in series [8]. For the same compound, the “Solubility in chlorinated solvents, alcohols, acetonitrile, dimethylsulfoxide and dimethylformamide” value (“Solubility in chlorinated solvents” below) in [2] is “soluble”. The Solubility in water result in series [2] is reported as “insoluble”. The “SOD-mimic activity, times less than native bovine Cu-Zn-SOD” value in series [3] (ratio of superoxide IC50 to native bovine Cu-Zn-SOD (IC50 = 0.48 μM)) was 500 times. In series [4], the “Antioxidant (scavenging) activity, overall verdict” value (from here on “Antioxidant (scavenging) activity”) was “moderate antioxidant activity”.

With `Cc1ccc2c(cnn2[BH-](n2ncc3cc(C)ccc32)n2ncc3cc(C)ccc32)c1.Cc1ccc2c(cnn2[BH-](n2ncc3cc(C)ccc32)n2ncc3cc(C)ccc32)c1.ClCCl.[Zn+2]` [Complex 4, [Zn(Tp^4Bo,5Me)2]⋅CH2Cl2], in [2], the “Solubility in most organic solvents” value is “good solubility”; the “Solubility in chlorinated solvents” value was “soluble”; the Solubility in water result was “insoluble”. Also, the “Stability to air and moisture” value in series [9] was “air and moisture stable”.

For the compound `ClCCl.ClCCl.ClCCl.ClCCl.[Zn+2].c1ccc2c(c1)CCc1cn([BH-](n3cc4c(n3)-c3ccccc3CC4)n3cc4c(n3)-c3ccccc3CC4)nc1-2.c1ccc2c(c1)CCc1cn([BH-](n3cc4c(n3)-c3ccccc3CC4)n3cc4c(n3)-c3ccccc3CC4)nc1-2` [Complex 5, [Zn(Tp^a)2]⋅4CH2Cl2], in series [2], the “Solubility in most organic solvents” value is recorded as “good solubility”; the “Solubility in chlorinated solvents” value is listed as “soluble”; the Solubility in water result is given as “insoluble”. For the same compound, the “Antioxidant (scavenging) activity” value in series [4] is “moderate antioxidant activity”. The “Stability to air and moisture” value in series [9] was “air and moisture stable”.

Consider `Cc1ccc2c(cnn2[BH-](n2ncc3cc(C)ccc32)n2ncc3cc(C)ccc32)c1.Cc1ccc2c(cnn2[BH-](n2ncc3cc(C)ccc32)n2ncc3cc(C)ccc32)c1.[Cd+2]` [Complex 7, [Cd(Tp^4Bo,5Me)2]], for which the IC50 in series [1], in series [3], in [5], in series [6], in series [7] and in series [8] was more than 5 mM throughout. Also, in [2], the “Solubility in most organic solvents” value is recorded as “good solubility”. Further, the “Solubility in chlorinated solvents” value in [2] is given as “soluble”. The Solubility in water entry in series [2] was “insoluble”. Besides, the “Stability to air and moisture” value in [9] is “air and moisture stable”.

In the case of `CC(C)(C)c1cc[nH]n1.CC(C)(C)c1ccn([BH2-]n2ccc(C(C)(C)C)n2)n1.[Cl][Cd+]` [Complex 9, [Cd(Bp^t^Bu)(Hpz^t^Bu)Cl]], the IC50 is 0.151 ± 0.0042 mM in series [1]; more than 5 mM in series [3]; more than 5 mM in series [5]; more than 5 mM in series [6]; more than 5 mM in series [7]; more than 5 mM in [8]. Also, the “Solubility in chlorinated solvents” value in [2] is reported as “soluble”. In [2], the Solubility in water result is reported as “insoluble”. Moreover, the “Antioxidant (scavenging) activity” value in series [4] was “moderate antioxidant activity”.

Consider `Cc1c(C)c2c(c(C)c1O)CCC(C)(C(=O)O)O2` (stereo not shown) [Trolox, reference compound], for which the 50% inhibitory concentration (IC50) was 0.00401 ± 0.0007 mM in series [1]; more than 5 mM in series [3]; more than 5 mM in series [5]; more than 5 mM in series [6]; 0.0199 ± 0.0015 mM in [7]; more than 5 mM in series [8].

In the case of `O=C(O)c1ccc(P(c2ccccc2)c2ccccc2)cc1.O=C(O)c1ccc(P(c2ccccc2)c2ccccc2)cc1.[Cu+].c1cnn([B-](n2cccn2)(n2cccn2)n2cccn2)c1` [[Cu(PPh2(4-C6H4COOH))2(pzTp)]], the 50% inhibitory concentration (IC50) in [10] (reported scorpionate complex ref 21) was 0.0046 mM.

For the compound `Brc1cnn([BH-](n2cc(Br)cn2)n2cc(Br)cn2)c1.O=C(O)c1ccc(P(c2ccccc2)c2ccccc2)cc1.[Cu+]` [[Cu(PPh2(4-C6H4COOH))(Tp^4Br)]], the half-maximal inhibitory concentration (IC50) in series [10] (reported scorpionate complex ref 20) was 0.0062 mM.

In the case of [Zn(Tp^t^Bu)Cl] [Complex 6], the IC50 in series [1] is 0.0579 ± 0.0034 mM; in series [3], more than 5 mM; in series [5] it was more than 5 mM; in [6] it was more than 5 mM; in [7] it was more than 5 mM; in series [8], more than 5 mM. Besides, the “Solubility in chlorinated solvents” value in [2] is “soluble”. The Solubility in water entry in [2] is reported as “insoluble”.

In the case of “native bovine Cu-Zn-SOD: native bovine copper-zinc superoxide dismutase enzyme”, the half-inhibitory concentration (IC50) in [10] (native enzyme, literature value ref 47) is 0.00048 mM.
